The numbers were not newly measured in US20170258815A1, “CORTICOSTEROID FORMULATIONS AND METHODS FOR THE TREATMENT OF JOINT PAIN IN PATIENTS WITH DIABETES” (Flexion Therapeutics, Inc., priority 2016, published 2017), which cites them from elsewhere.

SMILES strings stand for the structures.

In this data set the test system is patients with controlled DM and OA of the knee.

With `CC1(C)O[C@@H]2C[C@H]3[C@@H]4CCC5=CC(=O)C=C[C@]5(C)[C@@]4(F)[C@@H](O)C[C@]3(C)[C@]2(C(=O)CO)O1` [TCA, Triamcinolone acetonide], the “Levels of blood glucose after IA injection compared with IA hyaluronic acid” value was “significantly increased levels of blood glucose”.

For the compound `CC(C)(C)CC(=O)OCC(=O)[C@@]12OC(C)(C)O[C@@H]1C[C@H]1[C@@H]3CCC4=CC(=O)C=C[C@]4(C)[C@@]3(F)[C@@H](O)C[C@@]12C` [triamcinolone hexacetonide], the “Levels of blood glucose after IA injection compared with IA hyaluronic acid” value is “significantly increased levels of blood glucose”.
